US20140235533A1, “DIHYDROFURAN DERIVATIVES AS INSECTICIDAL COMPOUNDS” (SYNGENTA PARTICIPATIONS AG, priority 2011, published 2014)

Key:
Type in all cases: in vivo
Spodoptera littoralis = Spodoptera littoralis (Egyptian cotton leafworm) cotton leaf disc spray test; settings: foliar, 72 h, 200 ppm spray on cotton leaf discs, 5 L1 larvae, mortality, feeding behavior, growth regulation 3 days after treatment
From the text: Spodoptera littoralis (Egyptian Cotton Leafworm) Cotton leaf discs were placed on agar in a 24-well microtiter plate and sprayed with test solutions at an application rate of 200 ppm. After drying, the leaf discs were infested with 5 L1 larvae. The samples were checked for mortality, feeding behavior, and growth regulation 3 days after treatment (DAT).

Heliothis virescens = Heliothis virescens (tobacco budworm) egg test on artificial diet; settings: 96 h, 200 ppm (concentration in well 18 ppm), eggs 0-24 h old on artificial diet, egg mortality, larval mortality, growth regulation after 4 days
Method: Heliothis virescens (Tobacco Budworm):
Eggs (0-24 h old) were placed in 24-well microtiter plate on artificial diet and treated with test solutions at an application rate of 200 ppm (concentration in well 18 ppm) by pipetting. After an incubation period of 4 days, samples were checked for egg mortality, larval mortality, and growth regulation. The following compound gave at least 80% control of Heliothis virescens: A1, A2, A03, A05, A06, A07, A08, A09, A10, A11, A12, A13, A14, A15, A16, A17, A18, A19, A20, A21, A22, A25, A26, A27, A31, A32, A34, A37, A39, A40, A42, A44, A45, A46, A47, A48, A49, A50, A51, A52, A53, B1**.

Plutella xylostella = Plutella xylostella (diamond back moth) artificial diet MTP test; settings: 144 h, 200 ppm (concentration in well 18 ppm), L2 larvae, larval mortality and growth regulation after 6 days
Method: (§1) Plutella xylostella (Diamond Back Moth): 24-well microtiter plate (MTP) with artificial diet was treated with test solutions at an application rate of 200 ppm (concentration in well 18 ppm) by pipetting. After drying, the MTPs were infested with L2 larvae (7-12 per well). After an incubation period of 6 days, samples were checked for larval mortality and growth regulation.

Diabrotica balteata = Diabrotica balteata (corn root worm) artificial diet MTP test; settings: 120 h, 200 ppm (concentration in well 18 ppm), L2 larvae, larval mortality and growth regulation after 5 days
Method: as §1, with “Diabrotica balteata (Corn Root Worm): A” for “Plutella xylostella (Diamond Back Moth):”, “(6-10” for “(7-12”, “5” for “6”

Tetranychus urticae = Tetranychus urticae (two-spotted spider mite) bean leaf disc spray test; settings: foliar, 192 h, 200 ppm spray on bean leaf discs, mite populations of mixed ages, egg, larval and adult mortality 8 days later
From the text: Tetranychus urticae (Two-Spotted Spider Mite): Bean leaf discs on agar in 24-well microtiter plates were sprayed with test solutions at an application rate of 200 ppm. After drying, the leaf discs are infested with mite populations of mixed ages. 8 days later, discs are checked for egg mortality, larval mortality, and adult mortality.

Measured: pest or weed control at 200 ppm

CSCC(=O)NCc1ccc(C2=COC(c3cc(Cl)cc(Cl)c3)(C(F)(F)F)C2)cc1Cl (stereo not drawn) [Compound A1, N-[[2-chloro-4-[2-(3,5-dichlorophenyl)-2-(trifluoromethyl)-3H-furan-4-yl]phenyl]methyl]-2-methylsulfanyl-acetamide]
≥ 80%: all assays above

O=C(NCc1ccc(C2=COC(c3cc(Cl)cc(Cl)c3)(C(F)(F)F)C2)cc1Cl)C1CC1 (stereo not drawn) [Compound A2, N-[[2-chloro-4-[2-(3,5-dichlorophenyl)-2-(trifluoromethyl)-3H-furan-4-yl]phenyl]methyl]cyclopropanecarboxamide]
≥ 80%: all assays above

C[C@H](NC(=O)C1CC1)c1ccc(C2=COC(c3cc(Cl)c(Cl)c(Cl)c3)(C(F)(F)F)C2)cc1 (stereo partly drawn) [B1*, N-[(1S)-1-[4-[2-(3,4,5-trichlorophenyl)-2-(trifluoromethyl)-3H-furan-4-yl]phenyl]ethyl]cyclopropanecarboxamide]
≥ 80%: all assays above
